Results reported in patent publication US8906344B2, “F-18 radiolabeled compounds for diagnosing and monitoring kidney function” (Kasina Laila Innova Pharmaceuticals Private Limited, priority 2012, dated 2014).
Where two headings read alike, the source gives them in different places.

Key:
[1] = Limited organ bio-distribution in mice; type: in vivo, Female Swiss Albino mice; settings: for Kidney (% ID) / Liver (% ID) / Small Intestine (% ID) / Urine (% ID): n=4
Experimental: Female Swiss Albino mice were randomized (4 animals per time-point) according to body weight on the day prior to the experimental date. Some of the selected compounds of formula (I) are evaluated for a limited bio-distribution study involving five selected organs of interest such as Blood, Liver, Small Intestines, Kidneys and Urine. Each compound was dissolved in a vehicle comprising of 10% N-methyl-2-pyrrolidone in sterile water to achieve a final strength of 1 mg/mL. The mixture was sonicated for 2 min to yield a clear solution. Compound was administered to mice via tail vein at a dose volume of 2 mL/kg in order to obtain a final dose of 2 mg/kg. […] Blood was collected from the retro-orbital plexus in K2-EDTA containing tubes, centrifuged, plasma harvested and stored at −80° C. until further analysis. Liver, kidneys (right and left), and small intestine were harvested, weighted, and stored at −80° C. The small intestine was flushed with normal saline prior to storage. Urine was collected directly from the bladder and stored at −80° C.
Liver, kidneys, and small intestine were homogenized in water at 20% w/v. The respective homogenates were mixed thoroughly and stored at −80° C. until further processing. An aliquot of 100 μL of plasma/tissue homogenate was transferred to a 1.5 mL micro centrifuge tube. Twenty five microliters of compound (5 μg/mL), hundred microliters of 1% formic acid and 750 μL of tert-butyl methyl ether were added and sample was vortexed for 3 min. After centrifugation of the sample at 12,000 rpm at 4° C. for 5 min, supernatant was removed and evaporated under nitrogen stream at 40° C. for an additional 10 min (nitrogen evaporator, Caliper Instruments USA). The residue was reconstituted with 125 μL of solution (acetonitrile:water 1:1) and 10 μL was injected into the chromatographic system. On similar lines, an aliquot of 50 μL of urine was transferred to a 1.5 mL micro centrifuge tube. One hundred and fifty microliters of compound (5 μg/mL), was added and sample was vortexed for 3 min. After centrifugation of the sample at 12,000 rpm at 4° C. for 5 min, supernatant was removed and 10 μL was subjected to LC-MS/MS (Thermo Quantum Ultra) for the analysis.
Analyte concentrations were determined by evaluating the peak area ratio of drug to internal standard against a standard curve. The standard curve was prepared by plotting the relationship between peak area ratio of analyte to internal standard against concentration of standard CC samples by using linear regression y=ax+b and putting the 1/x^2 as weighting factor.
Data were expressed as ng/g for liver, kidneys, and small intestine. Percent compound in tissues was calculated based on the absolute dose administered (mg/kg). Plasma concentrations as a percent of administered dose were extrapolated assuming a total blood volume of 6% body weight and a 60% yield (plasma from blood). Compound concentrations in urine were expressed as μg per total volume collected.

[2] = Plasma clearance in rats, single injection clearance method; settings: for Plasma clearance: normal rats; for Clearance: rats, 2 mg/kg i.v. bolus tail vein, n=3, LC-MS/MS, noncompartmental
Experimental: The experiment for each compound was performed in isoflurane-anesthetized male SD rats (body weight 180-260 gm; n=3). Solution formulation of each compound was prepared in sterile water for injection with strength of 1 mg/mL. All solution formulations were prepared freshly prior to dosing. The dose volume for i.v bolus injection was 2 mL/kg. Three rats for each compound were administered intravenously (i.v.) bolus injection in tail vein at 2 mg/kg body weight. Blood samples were obtained at pre-dose (0 hr), 0.08, 0.17, 0.25, 0.5, 0.75, 1 and 2 hr post dosing. The blood samples (˜120 μL) were taken from the retro-orbital plexus into labelled micro centrifuge tubes, containing 10 μL of 2% w/v K2EDTA solution, as an anticoagulant. […] Bioanalysis of rat plasma samples were analysed with developed method for each analyte using LC-MS/MS (Waters, Xevo TQ-S). The pharmacokinetic parameters such as area under the curve (AUC), elimination half-life (T1/2), volume of distribution (Vss) and clearance (CL) were estimated using a noncompartmental model in Phoenix WinNonlin software, version 6.3.

[3] = literature, cited from earlier work; for Plasma clearance: known renal diagnostic agents
[4] = 15 min after injection, 2 mg/kg tail vein
[5] = 15 min after injection, 2 mg/kg tail vein, n=4, plasma extrapolated assuming blood volume 6% body weight, 60% yield
[6] = 60 min after injection, n=4, plasma extrapolated to blood

In the case of `C[C@@H](NC(=O)c1ccc(N)cc1[18F])C(=O)O` [Compound 11, (R)-2-(4-Amino-2-(18)fluorobenzamido)propanoic acid], the “retention in liver, small intestine and kidney (in words)” value (shortened to “retention in liver”) ([1]; 15 min after injection) is reported as “minimum retention”, the “Kidney (% ID)” value [1, 4] is reported as 0.06 ± 0.02 % ID and the “Liver (% ID)” value [1, 4] is reported as 0.02 ± 0.03 % ID. For the same compound, the “Small Intestine (% ID)” value [1, 4] was 0.09 ± 0.05 % ID, the “Urine (% ID)” value [1, 4] was 82.31 ± 9.60 % ID and the “Blood (% ID)” value [1, 5] was 0.94 ± 0.53 % ID. For the same compound, the “Kidney (% ID)” value ([1]; 60 min after injection) was 0.01 ± 0.02 % ID, the “Liver (% ID)” value ([1]; 60 min after injection) was 0.00 ± 0.00 % ID and the “Small Intestine (% ID)” value ([1]; 60 min after injection) was 0.00 ± 0.00 % ID. For the same compound, the “Blood (% ID)” value [1, 6] was 0.12 ± 0.17 % ID, the Plasma clearance [2] was 3.36±0.41 ml/min/100 g and the Clearance [2] was 3.36 ± 0.41 mL/min/100 g.
In the case of “Tc-99m MercaptoAcetylGlycylGlycylGlycine [Tc-99m MAG-3]”, the Plasma clearance [3] is listed as 2.84 ml/min/100 g and the “clearance as percent of the clearance of 131I-OIH” value [3] is listed as 50%-60%.
With `CC(=O)Nc1ccc(C(=O)NCC(=O)O)c([18F])c1` [Compound 2, 2-(4-Acetamido-2-(18)fluorobenzamido)acetic acid] the “Kidney (% ID)” value [1, 4] was 1.19 ± 0.53 % ID, the “Small Intestine (% ID)” value [1, 4] was 0.09 ± 0.04 % ID and the “Urine (% ID)” value [1, 4] was 84.42 ± 3.44 % ID. For the same compound, the “Kidney (% ID)” value ([1]; 60 min after injection) was 0.05 ± 0.09 % ID and the “Small Intestine (% ID)” value ([1]; 60 min after injection) was 0.02 ± 0.02 % ID.
With `Nc1ccc(C(=O)NCC(=O)O)c([18F])c1` [Compound 1, 2-(4-amino-2-(18)fluorobenzamido)acetic acid] the “Kidney (% ID)” value [1, 4] was 0.51 ± 0.45 % ID, the “Small Intestine (% ID)” value [1, 4] was 0.07 ± 0.08 % ID and the “Urine (% ID)” value [1, 4] was 87.76 ± 6.03 % ID. For the same compound, the “Kidney (% ID)” value ([1]; 60 min after injection) was 0.00 ± 0.00 % ID and the “Small Intestine (% ID)” value ([1]; 60 min after injection) was 0.00 ± 0.00 % ID.
For `C[C@H](NC(=O)c1ccc(N)cc1[18F])C(=O)O` [Compound 10, (S)-2-(4-Amino-2-(18)fluorobenzamido)propanoic acid], the “retention in liver” value ([1]; 15 min after injection) was “minimum retention”, the “Kidney (% ID)” value [1, 4] was 0.09 ± 0.04 % ID and the “Liver (% ID)” value [1, 4] was 0.21 ± 0.05 % ID. The “Small Intestine (% ID)” value [1, 4] was 0.01 ± 0.01 % ID, the “Urine (% ID)” value [1, 4] was 83.59 ± 8.82 % ID and the “Blood (% ID)” value [1, 5] was 0.50 ± 0.27 % ID. The “Kidney (% ID)” value ([1]; 60 min after injection) was 0.00 ± 0.00 % ID, the “Liver (% ID)” value ([1]; 60 min after injection) was 0.05 ± 0.07 % ID and the “Small Intestine (% ID)” value ([1]; 60 min after injection) was 0.00 ± 0.00 % ID. For the same compound, the “Blood (% ID)” value [1, 6] was 0.01 ± 0.00 % ID, the Plasma clearance [2] was 3.25±0.13 ml/min/100 g and the Clearance [2] was 3.25 ± 0.13 mL/min/100 g.
In the case of `Nc1cc(C(=O)NCC(=O)O)ccc1[18F]` [Compound 3, 2-(3-Amino-4-(18)fluorobenzamido)acetic acid], the “retention in liver” value ([1]; 15 min after injection) is reported as “minimum retention”, the “Kidney (% ID)” value [1, 4] is reported as 0.13 ± 0.01 % ID and the “Liver (% ID)” value [1, 4] is reported as 0.08 ± 0.04 % ID. The “Small Intestine (% ID)” value [1, 4] was 0.04 ± 0.02 % ID, the “Urine (% ID)” value [1, 4] was 72.73 ± 1.91 % ID and the “Blood (% ID)” value [1, 5] was 0.83 ± 0.02 % ID. For the same compound, the “Kidney (% ID)” value ([1]; 60 min after injection) was 0.00 ± 0.00 % ID, the “Liver (% ID)” value ([1]; 60 min after injection) was 0.00 ± 0.00 % ID and the “Small Intestine (% ID)” value ([1]; 60 min after injection) was 0.00 ± 0.00 % ID. For the same compound, the “Blood (% ID)” value [1, 6] was 0.02 ± 0.02 % ID, the Plasma clearance [2] was 2.78±0.19 ml/min/100 g and the Clearance [2] was 2.78 ± 0.19 mL/min/100 g.
With `Nc1cccc([18F])c1C(=O)NCC(=O)O` [Compound 8, 2-(2-Amino-6-(18)fluorobenzamido)acetic acid] the “Kidney (% ID)” value [1, 4] was 0.91 ± 0.40 % ID, the “Small Intestine (% ID)” value [1, 4] was 0.10 ± 0.09 % ID and the “Urine (% ID)” value [1, 4] was 87.51 ± 4.14 % ID. The “Kidney (% ID)” value ([1]; 60 min after injection) was 0.02 ± 0.03 % ID, the “Small Intestine (% ID)” value ([1]; 60 min after injection) was 0.01 ± 0.01 % ID and the Clearance [2] was 1.55 ± 0.10 mL/min/100 g.
In the case of `O=C(O)CNC(=O)c1ccccc1[131I]` [Compound I-131, I-131-ortho iodohippuran], the Plasma clearance [3] is listed as 2.17 ml/min/100 g.
For `Nc1ccc(C(=O)NCC(=O)O)cc1[19F]` [Compound 6, 2-(4-Amino-3-(18)fluorobenzamido)acetic acid], the “retention in liver” value ([1]; 15 min after injection) was “minimum retention”, the “Kidney (% ID)” value [1, 4] was 0.47 ± 0.20 % ID and the “Liver (% ID)” value [1, 4] was 0.08 ± 0.02 % ID. For the same compound, the “Small Intestine (% ID)” value [1, 4] was 0.11 ± 0.08 % ID, the “Urine (% ID)” value [1, 4] was 78.21 ± 4.79 % ID and the “Blood (% ID)” value [1, 5] was 0.68 ± 0.38 % ID. For the same compound, the “Kidney (% ID)” value ([1]; 60 min after injection) was 0.01 ± 0.01 % ID, the “Liver (% ID)” value ([1]; 60 min after injection) was 0.02 ± 0.02 % ID and the “Small Intestine (% ID)” value ([1]; 60 min after injection) was 0.01 ± 0.01 % ID. The “Blood (% ID)” value [1, 6] was 0.02 ± 0.01 % ID, the Plasma clearance [2] was 3.48±0.63 ml/min/100 g and the Clearance [2] was 3.48 ± 0.63 mL/min/100 g.
